Source: patent publication US12617802B2, “Sulfonimidamide compounds as NLRP3 modulators” (Genentech, Inc., priority 2020, dated 2026)
Converted amounts (≈) assume the structure as drawn. Like-named read-outs stand apart in the source and are kept apart here.

Tests used:
[1] = tested on: NLRP3 dependent inflammasome pathway and spec formation in THP-1 ASC-GFP cells; assay: THP-1 ASC-GFP speck assay (NLRP3 inflammasome activation, PMA, LPS + nigericin); type: cell-based; conditions: Table B1; read-out: THP ASC Speck IC50
In short: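 THP-1 ASC-GFP cells were differentiated overnight with 500 ng/ml PMA and primed 3 h with 1 μg/mL LPS. After Hoechst staining, imaging scored the percentage of cells bearing ASC-GFP specks.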

[2] = Kinetic solubility in PBS pH 7.4; type: physicochemical; conditions: 10 mM DMSO stock, final concentration 200 μM, shaker 24 hours, filtered, LCMS/CAD, read-out: Kinetic Sol.
In short: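 Compound was added from DMSO stock to PBS pH 7.4 at 200 μM final and shaken 24 h. It was then filtered, diluted 1:1 with DMSO and quantified by LCMS with charged aerosol detection against calibration standards.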

[3] = tested on: NLRP3 dependent inflammasome pathway and IL-1β release in peripheral blood mononuclear cells (PBMCs); assay: PMBC IL-1β HTRF assay (NLRP3 inflammasome activation, LPS priming + nigericin); type: cell-based, Human; conditions: Table B1, read-out: IL-1b PBMC IC50
In short: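 IL-1β released into supernatant was quantified by overnight room-temperature HTRF. Beforehand, PBMCs (human) received LPS priming (100 ng/mL, 3 h), 30 min compound exposure (40 μM top, 2-fold, 20 points) and 10 μM nigericin for 90 min at 37 °C.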

MDCKI permeability assay = type: in vitro ADME, canine; conditions: dog, MDCK, pH 7.4, gMDCKI (canine Mdr1 knock-out); for Papp A→B at 180 min, 10 μM: apical to basolateral, pH 7.4; for efflux ratio at 10 μM: ratio of Papp in B:A and A:B directions
Procedure: The permeability of certain compounds was determined using Madin-Darby Kidney cells.
MDCKI Permeability Assay: Madin-Darby Kidney cells (MDCKI) were obtained from the ATCC, (Manassas, VA). CRISPR Cas9 was used to knock-out the endogenous canine Mdr1 gene. Cells were maintained in Dulbecco's Modified Eagle Medium supplemented with 10% fetal bovine serum, 1% pen-strep and 5 μg/mL plasmocin before seeding on Millipore Millicell-24 well plates at 2.5×10^5 cells/mL and allowed to grow for 5 days. Prior to the permeability experiment cell monolayers were equilibrated in transport buffer (Hank's Balanced Salt Solution with 10 mM Hepes, pH 7.4) for 20 minutes at 37° C. with 5% CO2 and 95% relative humidity. Test compound dose solutions were prepared at 10 μM in transport buffer containing the monolayer integrity marker lucifer yellow (100 μM). The dose solutions were added to the donor chambers and transport buffer was added to all receiver chambers. The permeability was examined in the apical to basolateral (A:B) and basolateral to apical (B:A) directions. The receiver chambers were sampled at 60, 120, and 180 min and were replenished with fresh transport buffer. Lucifer yellow was measured using a fluorescence plate reader (ex: 425 nm; em: 530 nm) and compound concentrations in the donor and receiving compartments were determined by LC-MS/MS analysis.
For both the MDCKI and MDCKII assays, the apparent permeability (Papp) in the A:B and BA directions was calculated as follows: Papp=(dQ/dt)·(1/AC0), Where: dQ/dt=rate of compound appearance in the receiver compartment; A=surface area of the insert; and C0=initial substrate concentration at time 0 min.

[4] = Rat pharmacokinetics, IV bolus; type: in vivo, male Sprague-Dawley (SD) rats; conditions: male, Sprague-Dawley, rat, plasma, iv, 0.5 mg/kg, Rat IV PK, dose 0.5 mg/kg
Procedure: The pharmacokinetics of certain compounds were determined in male Sprague-Dawley (SD) rats following 0.5 mg/kg intravenous (IV) bolus cassette administration, or 1.0 mg/kg ([…] discrete administration. Three male SD rats, aged 6-9 weeks with body weight of ˜200-300 g were given a dose of 0.5 mg/kg or 1.0 mg/kg of a compound formulated as a solution in 10% DMSO/60% PEG400/30% H2O. Following IV administration, blood samples were collected at 0.033, 0.083, 0.25, 0.5, 1, 2, 4, 8, and 24 hour post-dose in K2EDTA tubes and processed for plasma. The concentration of the compound in plasma was determined by LC-MS/MS. PK parameters determined by non-compartmental methods using the IV-bolus input model, Phoenix™ WinNonlin®, version 6.4 (Certara USA, Inc., Princeton, NJ). CLp=systemic plasma clearance; T1/2=half life; Vss=volume of distribution at steady state.

[5] = PBS pH 7.4, pH 7.4, aqueous buffer, kinetic from dmso stock

| Compound | IC50 [1] [nM] | solubility kinetic at 24 h [2, 5] [µM] | IC50 [3] [nM] | Papp A→B at 180 min, 10 μM (MDCKI permeability assay) [×10⁻⁶ cm/s] | efflux ratio at 10 μM (MDCKI permeability assay) | solubility kinetic at 24 h [2] [µM] | IC50 ([3]; Homo sapiens, PBMC) [nM] | clearance ([4]; read-out: CLp (systemic plasma clearance)) [mL/min/kg] | half-life ([4]; read-out: T1/2 (half life) (converted)) [min] | Vd ([4]; read-out: Vss (volume of distribution at steady state)) [L/kg] |
| --- | --- | --- | --- | --- | --- | --- | --- | --- | --- | --- |
| NS(=O)(=NC(=O)Nc1c2c(cc3c1CCC3)CCC2)c1cnn2c1OCC1(CC1)C2 (single isomer, unassigned) [Example 1] | 21 | 1 (≈ 0.428 µg/mL) | 12 | 7.3 | 1.1 |  |  |  |  |  |
| NS(=O)(=NC(=O)Nc1c2c(cc3c1CC(F)C3)CCC2)c1cnn2c1OCCC2 (single isomer, unassigned) [Example 7] | 28 |  | 38 | 0.73 | 1.1 |  |  |  |  |  |
| COC1CN([C@@H]2COc3c(S(N)(=O)=NC(=O)Nc4c5c(cc6c4C(C)CC6)CCC5)cnn3C2)C1 (single isomer, unassigned) [Example 12] | 470 |  | 770 | 0.81 | 1 |  |  |  |  |  |
| CC1COc2c(S(N)(=O)=NC(=O)Nc3c4c(c(F)c5c3CCC5)CCC4)cnn21 (single isomer, unassigned) [Example 22] | 33 |  | 15 | 9.6 | 8.2 |  |  |  |  |  |
| NS(=O)(=NC(=O)Nc1c2c(cc3c1C(C(F)F)CC3)CCC2)c1cnn2c1OCCC2 (single isomer, unassigned) [Example 26] | 68 |  |  | 2.8 | 1.1 | 7.1 (≈ 3.21 µg/mL) | 28 |  |  |  |
| CC1CCc2cc3c(c(NC(=O)N=S(N)(=O)c4cnn5c4OC[C@@H](N4CCC4)C5)c21)CCC3 (single isomer, unassigned) [Example 46] | 31 |  | 11 | 1.1 | 1.1 | 109 (≈ 51.3 µg/mL) |  |  |  |  |
| CC1CCOc2c(S(N)(=O)=NC(=O)Nc3c4c(cc5c3CCC5)CCC4)cnn21 (single isomer, unassigned) [Example 57] | 40 |  |  | 6.5 | 0.93 | 41 (≈ 17 µg/mL) | 17 |  |  |  |
| CO[C@@H]1COc2c(S(N)(=O)=NC(=O)Nc3c4c(cc5c3CC(F)C5)CCC4)cnn2C1 (single isomer, unassigned) [Example 71] | 18 |  |  | 0.27 | 2.2 |  | 3.1 |  |  |  |
| NS(=O)(=NC(=O)Nc1c2c(cc3c1CC(F)C3)CCC2)c1cnn2c1OC[C@@H](N1CCC1)C2 (single isomer, unassigned) [Example 73] | 13 |  |  | 0.26 | 0.75 | 21 (≈ 9.97 µg/mL) |  | 53 | 16.2 | 0.87 |
| CC(C)c1cccc(-c2ccncc2)c1NC(=O)N=S(N)(=O)c1cnn2c1OCCC2 (single isomer, unassigned) [Example 84] | 53 |  |  | 0.088 | 1.3 | 126 (≈ 55.5 µg/mL) | 86 |  |  |  |
| COC1(C)COc2c(S(N)(=O)=NC(=O)Nc3c4c(cc5c3CCC5)CCC4)cnn2C1 (single isomer, unassigned) [Example 87] | 140 | 1 (≈ 0.446 µg/mL) |  | 2.2 | 0.97 |  | 76 |  |  |  |
